The source of these data is PubChem BioAssay (NCI).

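These data come from cells grown in 96-well plates and exposed to compound for 48 hours at five concentrations. GI50 marks 50% less growth. TGI: total growth inhibition.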

Test systems include CAKI-1 renal; HT29 colon; LOX IMVI melanoma; MDA-MB-435; OVCAR-5 ovarian; RXF 393 renal; SK-MEL-2 melanoma; SK-MEL-5 melanoma; SNB-19 CNS; UACC-257 melanoma.
Holding throughout (assay): NCI anticancer screen, dose series, 48 h

On to `Cc1cccc2c3c(sc12)C(c1ccc(F)cc1)C(C#N)=C(N)O3` (stereo not drawn), for which the GI50 was 0.0466 µM in the test on CAKI-1 renal; 0.313 µM with HT29 colon; 0.0608 µM in the test on LOX IMVI melanoma; 0.0222 µM in the test on MDA-MB-435; 0.325 µM with OVCAR-5 ovarian; 0.0271 µM in the test with RXF 393 renal. The GI50 in the test on SK-MEL-2 melanoma was 1.7 µM; in the test with SK-MEL-5 melanoma, 0.111 µM; with SNB-19 CNS, 0.081 µM; in the test on UACC-257 melanoma, 10.6 µM. The TGI worked out at 12.5 µM in the test on CAKI-1 renal; 8.4 µM in the test with HT29 colon; 5.2 µM with LOX IMVI melanoma; 0.0514 µM in the test with MDA-MB-435; 12.8 µM in the test on OVCAR-5 ovarian; 0.0825 µM in the test with RXF 393 renal. In addition, the TGI was 21.6 µM with SK-MEL-2 melanoma, 1.38 µM in the test with SK-MEL-5 melanoma, 12.2 µM in the test on SNB-19 CNS and 36.8 µM in the test with UACC-257 melanoma.

Turning to `COCCOCCOCc1n(Cc2ccc3ccccc3n2)c2ccccc2[n+]1Cc1ccc2ccccc2n1`, the GI50 in the test with HT29 colon was 0.53 µM; with LOX IMVI melanoma, 1.14 µM; in the test with MDA-MB-435, 0.387 µM; in the test with OVCAR-5 ovarian it was 2.5 µM; in the test on RXF 393 renal it was 1.23 µM; with SK-MEL-2 melanoma it was 0.447 µM. Besides, the figures for the GI50 with SK-MEL-5 melanoma, in the test on SNB-19 CNS and in the test on UACC-257 melanoma were 0.388 µM, 0.444 µM and 0.277 µM, respectively. Also, the TGI in the test on HT29 colon amounted to 10.6 µM; in the test with LOX IMVI melanoma it was 10.4 µM; with MDA-MB-435, 10.8 µM; in the test with OVCAR-5 ovarian, 18 µM; with RXF 393 renal, 9.7 µM; in the test on SK-MEL-2 melanoma, 2.39 µM. For the same compound, the TGI in the test with SK-MEL-5 melanoma turned out to be 1.48 µM; with SNB-19 CNS, 13.5 µM; in the test with UACC-257 melanoma it was 3.73 µM.

With `Cc1cc(O)c(C2=NN(c3ccc(S(N)(=O)=O)cc3)C(/C=C/c3ccccc3)C2)cc1Cl` (stereo not drawn), the GI50 with CAKI-1 renal was 15.3 µM; with HT29 colon, 3.73 µM; in the test on LOX IMVI melanoma, 3.94 µM; with MDA-MB-435 it was 8.87 µM; in the test with OVCAR-5 ovarian it was 3.18 µM; in the test with RXF 393 renal, 6.69 µM. In addition, the GI50 was 16.8 µM in the test on SK-MEL-2 melanoma, 4.23 µM in the test with SK-MEL-5 melanoma, 7.84 µM in the test with SNB-19 CNS and 14.5 µM with UACC-257 melanoma. For the same compound, the TGI in the test with CAKI-1 renal turned out to be 87.7 µM; with HT29 colon, 14.7 µM; in the test with LOX IMVI melanoma, 16.2 µM; with MDA-MB-435, 24 µM; with OVCAR-5 ovarian it was 14.7 µM; with RXF 393 renal it was 20.2 µM. The TGI with SK-MEL-2 melanoma is 58.2 µM; in the test on SK-MEL-5 melanoma, 16.4 µM; with SNB-19 CNS it was 19.9 µM; with UACC-257 melanoma, 45.7 µM.

`NC(=O)c1sc(-n2cnc3cc(C(F)(F)F)ccc32)cc1OCc1ccccc1Br`: the GI50 in the test on CAKI-1 renal was above 25 µM; in the test with HT29 colon, above 19.5 µM; with LOX IMVI melanoma, above 17.5 µM; with MDA-MB-435, above 16.5 µM; with OVCAR-5 ovarian, above 25 µM; in the test with RXF 393 renal it was above 12.9 µM. Besides, the GI50 is above 25 µM with SK-MEL-2 melanoma, above 16.5 µM in the test on SK-MEL-5 melanoma, above 19.1 µM with SNB-19 CNS and above 25 µM with UACC-257 melanoma. Besides, the TGI in the test with CAKI-1 renal, in the test with HT29 colon, with LOX IMVI melanoma, in the test on MDA-MB-435, in the test on OVCAR-5 ovarian and in the test with RXF 393 renal was above 25 µM each time. Besides, the TGI in the test on SK-MEL-2 melanoma, in the test with SK-MEL-5 melanoma, in the test on SNB-19 CNS and in the test with UACC-257 melanoma was above 25 µM in each case.

On to `COc1ccc(CCN2CCC(CN(C)Cc3cnn(-c4ccccc4)c3)CC2)cc1`, for which the GI50 with CAKI-1 renal is 5.42 µM; in the test on HT29 colon it was 4.29 µM; in the test with LOX IMVI melanoma, 12.1 µM; in the test with MDA-MB-435, 2.54 µM; with OVCAR-5 ovarian, 14.8 µM; in the test on RXF 393 renal, 7.74 µM. Further, the GI50 was 17.3 µM with SK-MEL-2 melanoma, 3.96 µM in the test with SK-MEL-5 melanoma, 21.2 µM with SNB-19 CNS and 2.59 µM in the test on UACC-257 melanoma. For the same compound, the TGI in the test with CAKI-1 renal came to 19.9 µM; in the test on HT29 colon, 17.3 µM; in the test on LOX IMVI melanoma, 24.8 µM; in the test with MDA-MB-435, 6.8 µM; in the test with OVCAR-5 ovarian, 58.3 µM; with RXF 393 renal, 24.1 µM. The TGI was 32.8 µM in the test with SK-MEL-2 melanoma, 14.9 µM in the test with SK-MEL-5 melanoma, 66 µM with SNB-19 CNS and 7.12 µM with UACC-257 melanoma.

As for `O=C1N(Cc2ccccc2Cl)c2ccccc2C12NN=C(c1cccc(Cl)c1)S2` (stereo not drawn), the GI50 in the test on CAKI-1 renal was 1.69 µM; with HT29 colon, 2.02 µM; with LOX IMVI melanoma, 1.49 µM; in the test on MDA-MB-435 it was 1.75 µM; in the test with OVCAR-5 ovarian it was 1.88 µM; in the test on RXF 393 renal, 1.76 µM. Besides, the GI50 was 1.77 µM with SK-MEL-2 melanoma, 1.71 µM in the test on SK-MEL-5 melanoma, 1.75 µM in the test on SNB-19 CNS and 1.7 µM in the test with UACC-257 melanoma. Besides, the TGI amounted to 3.07 µM with CAKI-1 renal; 4.3 µM in the test with HT29 colon; 2.92 µM in the test with LOX IMVI melanoma; 3.28 µM in the test with MDA-MB-435; 3.76 µM with OVCAR-5 ovarian; 3.4 µM in the test with RXF 393 renal. The TGI in the test with SK-MEL-2 melanoma was determined as 3.38 µM; with SK-MEL-5 melanoma it was 3.11 µM; in the test with SNB-19 CNS, 3.32 µM; in the test on UACC-257 melanoma it was 3.27 µM.

On to `O=Cc1ccc(-c2ccc(-c3nc4ccccc4s3)cc2)s1`, for which the GI50 in the test on CAKI-1 renal is 48.2 µM; in the test with HT29 colon it was 77.3 µM; in the test with LOX IMVI melanoma it was 68.1 µM; in the test with MDA-MB-435, 56.2 µM; in the test on OVCAR-5 ovarian, above 100 µM; in the test with RXF 393 renal, above 100 µM. The GI50 in the test on SK-MEL-2 melanoma is above 100 µM; in the test with SK-MEL-5 melanoma, 27.1 µM; with SNB-19 CNS, above 100 µM; in the test with UACC-257 melanoma, above 100 µM. Besides, the TGI with CAKI-1 renal, with HT29 colon, in the test on LOX IMVI melanoma, in the test with MDA-MB-435, with OVCAR-5 ovarian and in the test with RXF 393 renal was above 100 µM each time. The TGI in the test with SK-MEL-2 melanoma, in the test on SK-MEL-5 melanoma, in the test on SNB-19 CNS and with UACC-257 melanoma was above 100 µM in each case.
